In one data set the test system is hCoV-229E. The class given is cell-based, human corona virus 229E. The following applies: for EC50: (*) mean of three independent experiments ± SEM.
A further data set relates to LN-229 (glioblastoma). Description: IncuCyte real-time proliferation assay, LN-229. It counts as cell-based. The following applies: LN-229, 72 h.
Data set [1] relates to Capan-1 (pancreatic adenocarcinoma). Description: IncuCyte real-time proliferation assay, Capan-1. The class given is cell-based.
Data set [2] relates to HCT-116 (colorectal carcinoma). Description: IncuCyte real-time proliferation assay, HCT-116. The class given is cell-based. The following applies: HCT-116, 72 h.
The subject of data set [3] is NCI-H460 (lung carcinoma). Description: IncuCyte real-time proliferation assay, NCI-H460. The conditions noted are these: NCI-H460, 72 h. It counts as cell-based.
For data set [4], the system named is DND-41 (acute lymphoblastic leukemia). Description: IncuCyte real-time proliferation assay, DND-41. The class given is cell-based.
In data set [5] the test system is HL-60 (acute myeloid leukemia). Description: IncuCyte real-time proliferation assay, HL-60. The class given is cell-based. The following applies: HL-60, 72 h.
The test system of data set [6] is K-562 (chronic myeloid leukemia). Description: IncuCyte real-time proliferation assay, K-562. The class given is cell-based.
Data set [7] deals with Z-138 (non-Hodgkin lymphoma). Description: IncuCyte real-time proliferation assay, Z-138. The following applies: Z-138, 72 h. It counts as cell-based.
Setting [8] is: * mean of two independent experiments ± SEM.
[9] abbreviates: Capan-1, 72 h, * mean of two independent experiments ± SEM.
Where [10] appears, read: DND-41, 72 h, * mean of two independent experiments ± SEM.
Setting [11] is: K-562, 72 h, * mean of two independent experiments ± SEM.

The results in this text go back to PMC8223195 (Molecular Diversity, 2021).

One may read the EC50 as the concentration at which the effect is half-maximal. As a reminder, the IC50 is the concentration at which inhibition is half-maximal. Read a high IC50 as a need for much substance. Usually CC50 stands for the concentration that lowers cell viability or growth by half. Read a high CC50 as better tolerance by the cells.

As to `Cc1cc(C)n(-c2nnc3n2NC(c2ccc(Cl)cc2)C(C(=O)c2ccc(Br)cc2)S3)n1` (racemic) [5 g, ( ±)-(4-Bromophenyl)(6-(4-chlorophenyl)-3-(3,5-dimethyl-1H-pyrazol-1-yl)-6,7-dihydro-5H-triazolo[3,4-b][1,3,4]thiadiazin-7-yl)methanone], the EC50 in the data set with hCoV-229E was over 100 µM. The IC50 (with LN-229 (glioblastoma) (setting [8]); in [1] (setting [9]); in data set [2] (setting [8]); in [3] (setting [8]); in data set [4] (setting [10]); in [5] (setting [8])) was over 100 µM each time. For the same molecule, the IC50 in data set [6] (setting [11]) and in [7] (setting [8]) was over 100 µM each time. Besides, the CC50 in the data set on HEL 299 cells was over 100 µM.
In the data set on hCoV-229E, `Cc1cc(C)n(-c2nnc3n2NC(c2cc(F)c(F)c(F)c2)C(C(=O)c2ccccc2)S3)n1` (racemic) [5 k, ( ±)-(3-(3,5-Dimethyl-1H-pyrazol-1-yl)-6-(3,4,5-trifluorophenyl)-6,7-dihydro-5H-[1,2,4]triazole [3,4-b][1,3,4]thiadiazin-7-yl)(phenyl)methanone] yielded an EC50 of over 100 µM. The IC50 (in the data set with LN-229 (glioblastoma) (setting [8]); in data set [1] (setting [9]); in [2] (setting [8]); in [3] (setting [8]); in [4] (setting [10]); in [5] (setting [8])) was over 100 µM throughout. The IC50 in [6] (setting [11]) and in data set [7] (setting [8]) was over 100 µM in each case. For the same molecule, the CC50 in the data set with HEL 299 cells was over 100 µM.
Take `COc1cc(C2Nn3c(nnc3-n3nc(C)cc3C)SC2C(=O)c2ccccc2)cc(OC)c1OC` (racemic) [5 m, ( ±)-(3-(3,5-Dimethyl-1H-pyrazol-1-yl)-6-(3,4,5-trimethoxyphenyl)-6,7-dihydro-5H-[1,2,4]triazole [3,4-b][1,3,4]thiadiazin-7-yl)(phenyl)methanone]: the response in the data set on hCoV-229E was half-maximal at 95.7 µM (EC50). Also, the IC50 (in the data set on LN-229 (glioblastoma) (setting [8]); in data set [1] (setting [9]); in data set [2] (setting [8]); in [3] (setting [8]); in data set [4] (setting [10]); in data set [5] (setting [8])) was over 100 µM in each case. The IC50 in [6] (setting [11]) and in [7] (setting [8]) was over 100 µM each time. In the data set with HEL 299 cells, this molecule yielded a CC50 of over 100 µM.
For `Cc1cc(C)n(-c2nnc3n2NC(c2cccs2)C(C(=O)c2ccc([N+](=O)[O-])cc2)S3)n1` (racemic) [5 s, ( ±)-(3-(3,5-Dimethyl-1H-pyrazol-1-yl)-6-(thiophen-2-yl)-6,7-dihydro-5H-[1,2,4]triazolo[3,4-b][1,3,4]thiadiazin-7-yl)(4-nitrophenyl)methanone], the EC50 with hCoV-229E was over 100 µM. Moreover, the IC50 (with LN-229 (glioblastoma) (setting [8]); in [1] (setting [9]); in data set [2] (setting [8]); in [3] (setting [8]); in [4] (setting [10]); in data set [5] (setting [8])) was over 100 µM each time. The 50% inhibitory concentration (IC50) in data set [6] (setting [11]) and in data set [7] (setting [8]) was over 100 µM each time. In addition, the half-maximal cytotoxic concentration (CC50) in the data set on HEL 299 cells was over 100 µM.
On to `Cc1ccc(C(=O)C2Sc3nnc(-n4nc(C)cc4C)n3NC2c2ccc(C)cc2)cc1` (racemic) [Compound 5b, ( ±)-(3-(3,5-Dimethyl-1H-pyrazol-1-yl)-6-(p-tolyl)-6,7-dihydro-5H-[1,2,4]triazolo[3,4-b][1,3,4]thiadiazin-7-yl)(p-tolyl)methanone], for which the selectivity index entry in the data set on hCoV-229E is recorded as “favorable selectivity indexes”. In addition, the response in the data set with hCoV-229E was half-maximal at 4.7 ± 0.5 µM (EC50). Also, the IC50 in the data set with LN-229 (glioblastoma) (setting [8]) was 47.1 µM; in data set [1] (setting [9]), 57.5 µM; in [2] (setting [8]), 67.8 µM; in data set [3] (setting [8]) it was over 100 µM; in data set [4] (setting [10]), 39.3 µM; in data set [5] (setting [8]), 50.9 µM. For the same molecule, the values for the IC50 in [6] (setting [11]) and in [7] (setting [8]) were 10.4 µM and 48.4 µM, respectively. For the same molecule, the CC50 in the data set with HEL 299 cells came out at 81.5 µM.
`Cc1cc(C)n(-c2nnc3n2NC(c2ccc([N+](=O)[O-])cc2)C(C(=O)c2ccc([N+](=O)[O-])cc2)S3)n1` (racemic) [Compound 5c, ( ±)-(3-(3,5-Dimethyl-1H-pyrazol-1-yl)-6-(4-nitrophenyl)-6,7-dihydro-5H-[1,2,4]triazolo[3,4-b][1,3,4]thiadiazin-7-yl)(4-nitrophenyl)methanone] returned an EC50 in the data set with hCoV-229E of 24.4 µM. Besides, the IC50 (with LN-229 (glioblastoma) (setting [8]); in data set [1] (setting [9]); in [2] (setting [8]); in data set [3] (setting [8]); in data set [4] (setting [10]); in data set [5] (setting [8])) was over 100 µM throughout. The IC50 in [6] (setting [11]) and in data set [7] (setting [8]) was over 100 µM throughout. Besides, the CC50 in the data set on HEL 299 cells is over 100 µM.
In the case of `Cc1cc(C)n(-c2nnc3n2NC(c2ccccc2Br)C(C(=O)c2ccc(F)cc2)S3)n1` (racemic) [Compound 5e, ( ±)-(6-(2-Bromophenyl)-3-(3,5-dimethyl-1H-pyrazol-1-yl)-6,7-dihydro-5H-[1,2,4]triazolo[3,4-b][1,3,4]thiadiazin-7-yl)(4-fluorophenyl)methanone], the EC50 in the data set on hCoV-229E was over 100 µM. The IC50 (with LN-229 (glioblastoma) (setting [8]); in data set [1] (setting [9]); in data set [2] (setting [8]); in data set [3] (setting [8]); in data set [4] (setting [10]); in data set [5] (setting [8])) was over 100 µM throughout. Also, the IC50 in [6] (setting [11]) and in data set [7] (setting [8]) was over 100 µM in each case. Moreover, the CC50 in the data set on HEL 299 cells was over 100 µM.
Consider `Cc1ccc(C(=O)C2Sc3nnc(-n4nc(C)cc4C)n3NC2c2ccccc2Br)cc1` (racemic) [Compound 5f, ( ±)-(6-(2-Bromophenyl)-3-(3,5-dimethyl-1H-pyrazol-1-yl)-6,7-dihydro-5H-[1,2,4]triazolo[3,4-b][1,3,4]thiadiazin-7-yl)(p-tolyl)methanone], for which the selectivity index result in the data set on hCoV-229E is “favorable selectivity indexes”. Also, the EC50 with hCoV-229E came to 3.2 ± 1.8 µM. Moreover, the IC50 (in the data set with LN-229 (glioblastoma) (setting [8]); in data set [1] (setting [9]); in data set [2] (setting [8]); in [3] (setting [8]); in data set [4] (setting [10]); in [5] (setting [8])) was over 100 µM each time. Further, the IC50 in data set [6] (setting [11]) and in [7] (setting [8]) was over 100 µM each time. The same molecule had a CC50 in the data set with HEL 299 cells of over 100 µM.
`COc1ccc(C(=O)C2Sc3nnc(-n4nc(C)cc4C)n3NC2c2ccccc2Cl)cc1` (racemic) [Compound 5n, ( ±)-(6-(2-Chlorophenyl)-3-(3,5-dimethyl-1H-pyrazol-1-yl)-6,7-dihydro-5H-[1,2,4]triazolo[3,4-b][1,3,4]thiadiazin-7-yl)(4-methoxyphenyl)methanone] displayed an EC50 with hCoV-229E of over 100 µM. Besides, the IC50 in the data set with LN-229 (glioblastoma) (setting [8]) is 68.3 µM; in data set [1] (setting [9]), 63.1 µM; in [2] (setting [8]) it was over 100 µM; in data set [3] (setting [8]), over 100 µM; in data set [4] (setting [10]), 91.7 µM; in data set [5] (setting [8]), 71.2 µM. For the same molecule, the IC50 stood at 53.2 µM in data set [6] (setting [11]) and 53.9 µM in data set [7] (setting [8]). Besides, the CC50 in the data set on HEL 299 cells was over 100 µM.
Turning to `Cc1ccc(C(=O)C2Sc3nnc(-n4nc(C)cc4C)n3NC2c2ccco2)cc1` (racemic) [Compound 5r, ( ±)-(3-(3,5-Dimethyl-1H-pyrazol-1-yl)-6-(furan-2-yl)-6,7-dihydro-5H-[1,2,4]triazolo[3,4-b] [1,3,4]thiadiazin-7-yl)(p-tolyl)methanone], in the data set with hCoV-229E, the EC50 is over 100 µM. Besides, the IC50 came out at 43.9 µM in the data set on LN-229 (glioblastoma) (setting [8]); 54.3 µM in data set [1] (setting [9]); 69 µM in [2] (setting [8]); 47 µM in data set [3] (setting [8]); 70.2 µM in [4] (setting [10]); 54 µM in [5] (setting [8]). The values for the IC50 in data set [6] (setting [11]) and in data set [7] (setting [8]) were 23.5 µM and 50.2 µM, respectively. In the data set on HEL 299 cells, this molecule showed a CC50 of over 100 µM.
The molecule `Cc1cc(C)n(-c2nnc3n2NC(c2ccco2)C(C(=O)c2ccc([N+](=O)[O-])cc2)S3)n1` (racemic) [Compound 5t, ( ±)-(3-(3,5-Dimethyl-1H-pyrazol-1-yl)-6-(furan-2-yl)-6,7-dihydro-5H-[1,2,4]triazolo[3,4-b][1,3,4]thiadiazin-7-yl)(4-nitrophenyl)methanone] returned an EC50 in the data set on hCoV-229E of over 100 µM. The IC50 was 62.7 µM in the data set on LN-229 (glioblastoma) (setting [8]); over 100 µM in data set [1] (setting [9]); over 100 µM in data set [2] (setting [8]); over 100 µM in data set [3] (setting [8]); over 100 µM in [4] (setting [10]); 74.5 µM in data set [5] (setting [8]). The IC50 in data set [6] (setting [11]) amounted to 79.3 µM; in data set [7] (setting [8]), 49.5 µM. In the data set on HEL 299 cells, this molecule showed a CC50 of over 100 µM.
As to `CC(=O)O[C@@]12CO[C@@H]1C[C@H](O)[C@@]1(C)C(=O)[C@H](O)C3=C(C)[C@@H](OC(=O)[C@H](O)[C@@H](NC(=O)OC(C)(C)C)c4ccccc4)C[C@@](O)([C@@H](OC(=O)c4ccccc4)[C@H]21)C3(C)C` [Docetaxel, reference compound], the IC50 in the data set on LN-229 (glioblastoma) (Homo sapiens) was 0.0087 ± 0.0004 µM; in data set [1] (Homo sapiens, CAPAN-1, 72 h), 0.0042 ± 0.0021 µM; in data set [2] (Homo sapiens), 0.0009 ± 0.0008 µM; in data set [3] (Homo sapiens), 0.0038 ± 0.0029 µM; in [4] (DND41, 72 h) it was 0.0033 ± 0.0014 µM; in [5] (Homo sapiens), 0.0023 ± 0.0003 µM. Also, the IC50 in data set [6] (Homo sapiens, K562, 72 h) came to 0.0037 ± 0.0003 µM; in data set [7] (Homo sapiens) it was 0.0011 ± 0.0008 µM.
For `CN[C@@H]1C[C@H]2O[C@@](C)([C@@H]1OC)n1c3ccccc3c3c4c(c5c6ccccc6n2c5c31)C(=O)NC4` [STS, staurosporine, reference compound], the IC50 turned out to be 0.0229 ± 0.0021 µM in the data set on LN-229 (glioblastoma) (Homo sapiens) and 0.0007 ± 0.0002 µM in data set [1] (Homo sapiens, CAPAN-1, 72 h).
